From publication PMC7033309, “π-Helix controls activity of oxygen-sensing diguanylate cyclases” (Bioscience Reports, 2020)

Target: T1, PccGCS (Pectobacterium carotovorum, UniProt C6D9C2, H237A/K238A)
T1 construct: gene PC1_2619; full-length PccGCS H237A/K238A (His-tagged)
T1 sequence (C6D9C2 1-471 H237A/K238A): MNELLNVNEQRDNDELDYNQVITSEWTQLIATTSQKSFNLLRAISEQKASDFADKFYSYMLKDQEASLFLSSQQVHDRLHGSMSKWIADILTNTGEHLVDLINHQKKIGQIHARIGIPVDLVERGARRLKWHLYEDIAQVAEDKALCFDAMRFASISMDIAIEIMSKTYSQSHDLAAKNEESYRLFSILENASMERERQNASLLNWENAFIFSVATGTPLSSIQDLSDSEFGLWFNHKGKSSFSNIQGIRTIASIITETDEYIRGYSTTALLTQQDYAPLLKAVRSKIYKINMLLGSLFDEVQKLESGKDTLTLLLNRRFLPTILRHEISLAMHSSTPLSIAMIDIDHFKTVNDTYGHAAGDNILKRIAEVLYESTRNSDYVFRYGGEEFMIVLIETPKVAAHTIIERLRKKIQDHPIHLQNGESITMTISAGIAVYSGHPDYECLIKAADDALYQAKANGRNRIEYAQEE
Test: isothermal titration calorimetry, […]°C
Type: binding

Compound `Nc1nc2c(ncn2[C@@H]2O[C@H](COP(=O)(O)CP(=O)(O)OP(=O)(O)O)[C@@H](O)[C@H]2O)c(=O)[nH]1` [GpCpp, guanosine-5′-[(α,β)-methyleno]triphosphate] has a Kd of 9.7 ± 3.9 µM.
